This note sets out measurements from US20250339391A1, “METHODS FOR EFFECTIVE MANAGEMENT OF PAIN” (South Rampart Pharma, Inc., priority 2024, published 2025).

In one series the test system is Sprague-Dawley rats. Put plainly: CFA inflammatory pain / von Frey with electronic detection (eVF). As to conditions: for antinociceptive activity, SRP-001 versus ApAP: 32 and 100 mg/kg, young and aged rats. The class given is in vivo, rat. On the procedure: In this model of mechanonociception, one hind paw at a time is stimulated with an electronic von Frey (eVF) filament (noxious source) until the animal retracts the paw from the mechanical stimulus. von Frey tests were conducted in a dedicated room at the LSUHSC New Orleans Neuroscience Center of Excellence vivarium. Rats were acclimated to their environment for 2 days for 30 min/day prior to testing. To obtain eVF pressure recordings, each animal was placed in an individual plastic observation compartment on a perforated metallic grid platform, which provided access to the plantar surface of the hind paws. After acclimation to the environment for 30 min, mechanical hypersensitivity was assessed by stimulating the mid-plantar area of each hind paw with a rigid tip von Frey filament attached to the eVF meter (Ugo Basile 38450) until animals withdrew the paw from the filament. The withdrawal threshold was defined as the average force/pressure (g) required for the rat to withdraw the stimulated paw. A brisk withdrawal of the paw (often followed by a sustained retraction and/or licking) was considered a positive response, but paw withdrawals due to locomotion or weight shifting were not counted. The von Frey studies were conducted with an eVF device that electronically registers the grams of force necessary to elicit paw withdrawal in order to eliminate bias that confounded previous older versions of this test. Baseline withdrawal thresholds of both the right and left paws were recorded, and animals were assigned to different treatment groups so that each group had approximately equal withdrawal threshold averages in both paws. […] Doses at concentrations of 32 mg/kg and 100 mg/kg were tested in a cumulative dose-response manner and given at an interval of 60 min, and paw withdrawal threshold readings were measured using eVF as described above.

Series [1] has as its system CD1 (young male and female) or C57BL/6 (aged male) mice. Put plainly: Cold tail flick somatic pain assay. The class given is in vivo, mouse. The settings on record: for analgesia in cold tail-flick assay: 100 mg/kg, all cohorts; for tail withdrawal time (latency) to cold stimulation: 32 and 100 mg/kg PO, 4 °C water. The protocol: Half of the tail was immersed in ice-cold water maintained at 4° C. For the tail-flick assays, we used n=70 aged male mice, n=90 young male mice, and n=120 young female mice. Based on the availability of mice at the time of the experiments, different numbers of animals were assigned in different cohorts of experimental animals. Tail flick assay experiments were conducted on an open bench in a dedicated room at the LSUHSC New Orleans Neuroscience Center of Excellence vivarium. Mice were allowed to acclimate to the laboratory environment for 1 h prior to testing. To restrain the mice for the test, disposable plastic 50 mL screw-capped conical centrifuge tubes were cut at the tip to create a 0.5 cm opening to allow the mice to breathe freely. Another 0.5 cm opening was cut into the cap to allow access of the tail to the water bath. A 500 mL glass beaker was filled with 450 mL of ice-cold distilled water maintained at 4° C. with the addition of ice and determined with a glass thermometer. Mice were held over the opening of the water bath, and their tails submerged approximately halfway into the water. The nociceptive threshold was taken as the latency until the mice flicked their tail tip or removed the tail. The time from immersion to the attempted tail tip removal was measured to 1/10th of a sec with a digital laboratory timer. To minimize damage to the tail, a 60-sec cut-off was utilized. […] Injections were at doses of 32 mg/kg and 100 mg/kg. 30 min post-drug administration tail-flick/withdrawal latency was measured.

The subject of another series is AM404. The series can be described thus: LC-MS/MS quantification of AM404 production in periaqueductal gray. Format: in vivo. The settings on record: rat, 32 mg/kg IP, 30 min, with CFA or vehicle. The protocol:
Deuterated compound D10-SRP-001 was synthesized by Olon Ricerca Bioscience (Concord, OH), and purity was determined to be >99.9% by HPLC. This was used as pure analytical standard for detection of SRP-001 using an LC-MS/MS method. Similarly, pure analytical standard of AM404 (10 ng/mL) obtained from Cayman Chemical (Ann Arbor, MI) was used to characterize the full fragmentation pattern of AM404. […] Thirty min post-injection, the animals were sacrificed (same as in the CFA/von Frey model), their brains harvested, and the midbrain periaqueductal gray (PAG) region excised. SRP-001 or AM404 were extracted from the PAG using a liquid-liquid extraction method using 1:1 MeOH:H2O for LC-MS/MS and were loaded onto a liquid chromatography-tandem mass spectrophotometer for analysis. The mass spectrophotometer was operated in multiple reaction monitoring (MRM) mode using positive ion electrospray. D10-SRP-001 was detected by monitoring the m/z transition 416→186. AM404 was detected by monitoring the m/z transition 396→287.

For series [2], the system named is CD1 (young male and female) or C57BL/6 (aged male) mice. Put plainly: Acetic acid-induced abdominal writhing visceral pain assay. As to conditions: for analgesia in acetic acid-induced writhing assay: 100 mg/kg, all cohorts; for antinociception in acetic acid writhing: 32 and 100 mg/kg PO, 0.4% acetic acid ip. Format: in vivo, mouse. On the procedure:
In this model of visceral pain, abdominal contraction (writhing) in which contraction of the abdominal muscles and stretching of the hind limbs is induced in mice in response to an ip injection of 0.4% acetic acid at a dose of 10 mL/kg 25 min after drug administration is assessed. Specifically, the number of writhes is counted for 10 min beginning 5 min after acetic acid injection. […] CD1 (young male and female) or C57BL/6 (aged male) mice were used. For the abdominal writhing assays, we used n=35 aged male mice, n=70 young male mice, and n=70 young female mice.

The next series concerns CD-1 male mice. The settings on record: for mortality by 72 hours: n=10. On the procedure: CD-1 male mice obtained from Charles River Laboratories underwent a one-week acclimation period. They were housed under a 12-hour day/night cycle, with unrestricted access to food and water. Before experimentation, mice were fasted for 15 hours. […] Each treatment group consisted of 10 mice. Post-dosing, the mice were monitored at 6-hour intervals over 72 hours for signs of becoming moribund. An investigator blinded to the treatment groups conducted the moribund state assessment.

Setting [3] is: 992 oral gavage (ApAP 150 mg/kg, SRP-001 402 mg/kg).

Entries after “also recorded” stand apart in the source; their conditions may differ. Where two headings read alike, the source gives them in different places.

`CC(=O)Nc1ccc(O)cc1` [ApAP, acetaminophen]: the “antinociceptive activity, SRP-001 versus ApAP” value in the series with Sprague-Dawley rats is on record as “comparable antinociceptive activity; also recorded: comparable analgesic activity”. Further, the “analgesia in cold tail-flick assay” value in series [1] is recorded as “significant analgesia”. Also, in series [1], the “tail withdrawal time (latency) to cold stimulation” value was “increased tail withdrawal time (latency)”. The “AM404 production in the PAG” value in the series on AM404 is recorded as “diminished”. In addition, in series [2], the “analgesia in acetic acid-induced writhing assay” value is given as “significant analgesia”. The “antinociception in acetic acid writhing” value in series [2] is given as “experienced antinociception”. The “mortality by 72 hours” value in the series with CD-1 male mice (setting [3]) was “absence of mortality”; in the series on CD-1 male mice (1,984 oral gavage (ApAP 300 mg/kg)), 1/10; in the series with CD-1 male mice (3,969 oral gavage (ApAP 600 mg/kg)), 3/10. Moreover, the “mortality reached within 72 hours (Kaplan-Meier)” value in the series with CD-1 male mice (highest dose) came to 70%.

In the case of `CCN(CC)C(=O)c1ccccc1S(=O)(=O)NCC(=O)Nc1ccc(O)cc1` [SRP-001, N,N-diethyl-2-[[2-(4-hydroxyanilino)-2-oxo-ethyl]sulfamoyl]benzamide], in the series with Sprague-Dawley rats, the “antinociceptive activity, SRP-001 versus ApAP” value is reported as “comparable antinociceptive activity; also recorded: more efficacious than ApAP; also recorded: comparable analgesic activity”. The “equimolar (μmol/kg) ED50 / dose-response curve relative to ApAP” value with Sprague-Dawley rats (von Frey, non-linear regression) is reported as “shifted curves to the left; also recorded: comparable or improved ED50; also recorded: clear shift to the left”. In addition, in series [1], the “analgesia in cold tail-flick assay” value is listed as “significant analgesia” and the “tail withdrawal time (latency) to cold stimulation” value is given as “increased tail withdrawal time (latency)”. Moreover, in series [1] (tail flick), the “equimolar (μmol/kg) ED50 / dose-response curve relative to ApAP” value is given as “comparable or improved ED50; also recorded: clear shift to the left”. Moreover, the “AM404 production in the PAG” value with AM404 (32 mg/kg) is recorded as “highest AM404 production; also recorded: produces more AM404 than ApAP”. Also, in series [2], the “analgesia in acetic acid-induced writhing assay” value is given as “significant analgesia” and the “antinociception in acetic acid writhing” value is recorded as “experienced antinociception”. In addition, the “equimolar (μmol/kg) ED50 / dose-response curve relative to ApAP” value in series [2] (acetic acid writhing) is on record as “comparable or improved ED50; also recorded: shifted to the left; also recorded: clear shift to the left”. Further, in the series on CD-1 male mice (setting [3]), the “mortality by 72 hours” value is recorded as “absence of mortality”.
